These results are taken from US20110306597A1, “Nicotinamide Derivatives” (priority 2008, published 2011).

Structures can show the parent of a compound that is named as a salt.

Test [1] deals with T1, human recombinant H-PGDS (Homo sapiens, UniProt O60760). The test can be described thus: Slightly modified h-PGDS TBA enzyme assay (Examples 529, 565, 566, 574-588 and 591). Format: biochemical. The settings on record: slightly modified assay (Examples 529, 565, 566, 574-588 and 591); 1:40,000 human recombinant H-PGDS. The method, then:
Prostaglandin D Synthase (PGDS) converts the substrate prostaglandin H2 (PGH2) to prostaglandin D2. The depletion of PGH2 was measured via an Fe(II) reduction of the remaining PGH2 to malondialdehyde (MDA) and 12-HHT. The enzyme assay is based on the quantitative formation of a fluorescent complex from the non-fluorescent compounds MDA and 2-thiobarbituric acid (TBA), substantially as described in U.S. patent application publication US-2004/152148 by Lombardt.
Examples 529, 565, 566, 574-588 and 591 were tested in a slightly modified assay: The enzyme assay (30 μls during biological process) contained 100 mM Trizma pH 8.0, 100 μM MgCl2, 0.1 mg/ml IgG Rabbit serum, 5.0 μM PGH2 (Cayman; ethanol solution, #17020), 2.5 mM L-Glutathione (Sigma; reduced form #G4251), 1:40,000 human recombinant H-PGDS (from 1 mg/ml), 0.5% DMSO and inhibitor (varying concentration). 3 μls of diluted inhibitor (dissolved in DMSO) was plated into a 384-well assay plate followed by a 24 μl addition of an enzyme solution containing h-PGDS, Trizma, MgCl2, IgG and L-Glutathione. After pre-incubation of inhibitor and enzyme solution for 10 minutes at room temperature, the reaction was initiated with a 3 μl addition of substrate solution in 10 mM HCl. The reaction was terminated after 40 second by the addition of 3 μl stop buffer containing FeCl2 and citric acid. After addition of 45 μls of TBA plates were heated for one hour in a 70° C. oven. Plates were cooled at room temperature overnight and read on a plate reader the next day with excitation @ 530 nm and emission @ 560 nm. IC50's of inhibitors were calculated with a 4-parameter fit using 11 inhibitor concentrations in duplicate with ½ log serial dilutions. Controls on each plate included no inhibitor (zero % effect) and an inhibitor 500-fold in excess of its' IC50 (100% effect). The highest inhibitor concentration tested was typically 10 μM.

For test [2], the target named is T1, human recombinant H-PGDS. The test can be described thus: Fluorescence Intensity h-PGDS TBA Enzyme Assay. Format: biochemical. The settings on record: 1:175,000 human recombinant H-PGDS, highest inhibitor concentration typically 1 μM. The essentials:
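Readout is PGH2 depletion: after a 42 s reaction with 5.0 μM PGH2 and 2.5 mM glutathione (pH 8.0 Tris, 10 min inhibitor preincubation), Fe(II) converts leftover PGH2 to MDA, which forms a fluorescent TBA complex. IC50s come from 11-point, 3-fold duplicate curves, 4-parameter fit.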

T1 sequence (O60760 whole entry): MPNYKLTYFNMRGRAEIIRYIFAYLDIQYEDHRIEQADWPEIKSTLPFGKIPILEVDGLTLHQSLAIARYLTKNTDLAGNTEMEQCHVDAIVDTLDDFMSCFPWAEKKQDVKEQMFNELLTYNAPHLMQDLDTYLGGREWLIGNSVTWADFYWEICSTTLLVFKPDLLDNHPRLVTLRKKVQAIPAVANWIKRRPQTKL

On to `CC(C)(C)OC(=O)N1[C@@H]2CC[C@H]1C[C@@H](NC(=O)c1ccc(-c3cccc(F)c3)nc1)C2` [Example 586, tert-Butyl (3-endo)-3-({[6-(3-fluorophenyl)pyridin-3-yl]carbonyl}amino)-8-azabicyclo[3.2.1]octane-8-carboxylate], for which, in test [1], the IC50 was 8.78 nM. `O=C(NCCN1CCC(O)CC1)c1ccc(-c2cccc(F)c2)nc1` [Example 575, 6-(3-Fluorophenyl)-N-[2-(4-hydroxypiperidin-1-yl)ethyl]nicotinamide]: the IC50 in test [1] was found to be 162 nM. In the case of `CCNC(=O)c1ccc(-c2cccc(F)c2)nc1` [Example 580, N-Ethyl-6-(3-fluorophenyl)nicotinamide], the IC50 in test [1] is 222 nM. On to `CCOCCNC(=O)c1ccc(-c2cc(F)ccc2O)nc1` [Example 566, N-(2-Ethoxyethyl)-6-(5-fluoro-2-hydroxyphenyl)nicotinamide], for which, in test [1], the IC50 is 349 nM.

Turning to `CC(=O)N1CCC(CNC(=O)c2ccc(-c3cc(F)ccc3O)nc2)CC1` [Example 565, N-[(1-Acetylpiperidin-4-yl)methyl]-6-(5-fluoro-2-hydroxyphenyl)nicotinamide], in test [1], the IC50 turned out to be 114 nM. Consider `CCCN1[C@@H]2CC[C@H]1C[C@@H](NC(=O)c1ccc(-c3cccc(F)c3)nc1)C2` [Example 585, 6-(3-Fluorophenyl)-N-[(3-endo)-8-propyl-8-azabicyclo[3.2.1]oct-3-yl]nicotinamide], for which the IC50 in test [1] came to 176 nM. For the molecule `O=C(N[C@H]1C[C@H]2CC[C@@H](C1)N2)c1ccc(-c2cccc(F)c2)nc1` [Example 584, N-[(3-endo)-8-azabicyclo[3.2.1]oct-3-yl]-6-(3-fluorophenyl)nicotinamide], the IC50 in test [1] turned out to be 196 nM. With `O=C(N[C@H]1[C@@H]2CN(c3ncccn3)C[C@@H]21)c1ccc(-c2cccc(F)c2)nc1` [Example 529, 6-(3-Fluorophenyl)-N-[(1R,5S,6s)-3-pyrimidin-2-yl-3-azabicyclo[3.1.0]hex-6-yl]nicotinamide], the IC50 in test [1] worked out at 11.3 nM. For `CC(C)(C)OC(=O)N1[C@@H]2CC[C@H]1C[C@H](NC(=O)c1ccc(-c3cccc(F)c3)nc1)C2` [Example 588, tert-Butyl (3-exo)-3-({[6-(3-fluorophenyl)pyridin-3-yl]carbonyl}amino)-8-azabicyclo[3.2.1]octane-8-carboxylate], in test [1], the IC50 turned out to be 15.4 nM. For `O=C(NCCN1CCCC1)c1ccc(-c2cccc(F)c2)nc1` [Example 574, 6-(3-Fluorophenyl)-N-(2-pyrrolidin-1-ylethyl)nicotinamide], in test [1], the IC50 came out at 1200 nM. As to `O=C(O)CCNC(=O)c1ccc(-c2cccc(F)c2)nc1` [Example 581, N-{[6-(3-Fluorophenyl)pyridin-3-yl]carbonyl}-beta-alanine], the IC50 in test [1] was 197 nM. For `CNCCNC(=O)c1ccc(-c2cccc(F)c2)nc1` [Example 578, 6-(3-Fluorophenyl)-N-(2-(methylamino)ethyl)nicotinamide hydrochloride], in test [1], the IC50 turned out to be 758 nM.

As for `O=C(NCCO)c1ccc(-c2cccc(F)c2)nc1` [Example 577, 6-(3-Fluorophenyl)-N-(2-hydroxyethyl)nicotinamide], the IC50 in test [1] worked out at 275 nM. Regarding `CC(C)S(=O)(=O)N1[C@@H]2CC[C@H]1C[C@H](NC(=O)c1ccc(-c3cccc(F)c3)nc1)C2` [Example 591, 6-(3-Fluorophenyl)-N-[(3-exo)-8-(isopropylsulfonyl)-8-azabicyclo[3.2.1]oct-3-yl]nicotinamide], the IC50 in test [1] was found to be 3.76 nM.

Regarding `O=C(NCC1CC1)c1ccc(-c2cccc(F)c2)nc1` [Example 579, N-(Cyclopropylmethyl)-6-(3-fluorophenyl)nicotinamide], in test [1], the IC50 came out at 128 nM. As to `CCCNC(=O)c1ccc(-c2cccc(F)c2)nc1` [Example 576, 6-(3-Fluorophenyl)-N-propylnicotinamide], the IC50 in test [1] was 93.4 nM. As for `O=C(N[C@@H]1C[C@H]2CC[C@@H](C1)N2)c1ccc(-c2cccc(F)c2)nc1` [Example 587, N-[(3-exo)-8-azabicyclo[3.2.1]oct-3-yl]-6-(3-fluorophenyl)nicotinamide], the IC50 in test [1] was 39.2 nM. In the case of `O=C(CCNC(=O)c1ccc(-c2cccc(F)c2)nc1)N[C@H]1CC[C@H](O)CC1` [Example 582, 6-(3-Fuorophenyl)-N-{3-[(trans-4-hydroxycyclohexyl)amino]-3-oxopropyl}nicotinamide], the IC50 in test [1] was determined as 34.2 nM. For `CC(C)OCCNCCNC(=O)c1ccc(-c2cccc(F)c2)nc1` [Example 583, 6-(3-Fluorophenyl)-N-(2-(2-isopropoxyethylamino)ethyl)nicotinamide], the IC50 in test [1] was found to be 277 nM. `Cc1cccc(-c2ccc(C(=O)NCCc3cccs3)cn2)c1` [Example 321, 6-(3-Methylphenyl)-N-[2-(2-thienyl)ethyl]nicotinamide]: the IC50 in test [2] worked out at 84.5 nM. Regarding `COCCCn1cnnc1CNC(=O)c1ccc(-c2cccc(F)c2)nc1` [Example 17, 6-(3-Fluorophenyl)-N-{[4-(3-methoxypropyl)-4H-1,2,4-triazol-3-yl]methyl}nicotinamide], the IC50 in test [2] amounted to 112 nM. With `CCCCNC(=O)c1ccc(-c2ccc(F)cc2)nc1` [Example 326, N-Butyl-6-(4-fluorophenyl)nicotinamide], the IC50 in test [2] is 414 nM. As to `CC(C)Cc1nnc(CCNC(=O)c2ccc(-c3cccc(F)c3)nc2)o1` [Example 206, 6-(3-Fluorophenyl)-N-[2-(5-isobutyl-1,3,4-oxadiazol-2-yl)ethyl]nicotinamide], the IC50 in test [2] stood at 16.6 nM.

For the molecule `O=C(NCCN1CCCC1=O)c1ccc(-c2cccc(F)c2)nc1` [Example 183, 6-(3-Fluorophenyl)-N-[2-(2-oxopyrrolidin-1-yl)ethyl]nicotinamide], the IC50 in test [2] came to 17.4 nM.

In the case of `O=C(NCCNc1ccccc1)c1ccc(-c2ccc(F)cc2)nc1` [Example 508, N-(2-Anilinoethyl)-6-(4-fluorophenyl)nicotinamide], in test [2], the IC50 was 412 nM. In the case of `O=C(NCCCNc1ccccn1)c1ccc(-c2ccccc2)nc1` [Example 395, 6-Phenyl-N-[3-(pyridin-2-ylamino)propyl]nicotinamide], the IC50 in test [2] came to 4.1 nM. As to `CC(C)[C@H](N)C(=O)NC(=O)c1ccc(-c2ccccc2)nc1` [Example 512, 6-Phenyl-N-L-valylnicotinamide], the IC50 in test [2] is 359 nM.

With `Cc1cc(C)nc(CNC(=O)c2ccc(-c3cccc(F)c3)nc2)n1` [Example 95, N-[(4,6-Dimethylpyrimidin-2-yl)methyl]-6-(3-fluorophenyl)nicotinamide], in test [2], the IC50 worked out at 95.7 nM. Take `COc1ccc(CNC(=O)c2ccc(-c3ccccc3)nc2)cc1OC` [Example 540, N-(3,4-Dimethoxybenzyl)-6-phenylnicotinamide]: the IC50 in test [2] amounted to 5.41 nM.

With `CCOC(=O)CC(NC(=O)c1ccc(-c2ccc(F)cc2)nc1)c1ccccc1` (stereo not drawn) [Example 258, Ethyl 3-({[6-(4-fluorophenyl)pyridin-3-yl]carbonyl}amino)-3-phenylpropanoate], the IC50 in test [2] is 715 nM. `O=C(NCc1nncn1C1CCCCC1)c1ccc(-c2cccc(F)c2)nc1` [Example 99, N-[(4-Cyclohexyl-4H-1,2,4-triazol-3-yl)methyl]-6-(3-fluorophenyl)nicotinamide]: in test [2], the IC50 was found to be 31.5 nM. Turning to `CCCCNC(=O)c1ccc(-c2cccc(F)c2)nc1` [Example 415, N-Butyl-6-(3-fluorophenyl)nicotinamide], in test [2], the IC50 worked out at 24.5 nM.

`O=C(NCCN1CCCC(O)C1)c1ccc(-c2cccc(F)c2)nc1` (stereo not drawn) [Example 47, 6-(3-Fluorophenyl)-N-[2-(3-hydroxypiperidin-1-yl)ethyl]nicotinamide]: in test [2], the IC50 stood at 21.7 nM. Turning to `Cc1ccc(C#N)c(N2C[C@H](NC(=O)c3ccc(-c4cccc(F)c4)nc3)[C@@H](O)C2)n1` [Example 562, N-[(3S,4S)-1-(3-Cyano-6-methylpyridin-2-yl)-4-hydroxypyrrolidin-3-yl]-6-(3-fluorophenyl)nicotinamide], the IC50 in test [2] was determined as 4.89 nM.

With `O=C(NCc1ccccc1)c1ccc(-c2cccc(F)c2)nc1` [Example 432, N-Benzyl-6-(3-fluorophenyl)nicotinamide], the IC50 in test [2] was found to be 14.9 nM. As for `COC(=O)CCNC(=O)c1ccc(-c2ccc(F)cc2)nc1` [Example 494, Methyl N-{[6-(4-fluorophenyl)pyridin-3-yl]carbonyl}-beta-alaninate], the IC50 in test [2] came out at 758 nM.
